# Assay results: patent US4604383A, “Pyrrolidin-2-ones and medicaments containing them” (Societe Anonyme Styled: SANOFI, priority 1983, dated 1986)
# Where two headings read alike, the source gives them in different places.
# Legend:
# [1] = Antagonism to the convulsions caused by 3-mercaptopropionic acid; assay type: in vivo, mouse (CD Charles Rivers mice); conditions: mouse, oral, 60 min before 3-mercaptopropionic acid 60 mg/kg s.c.; probit method, confidence limits in parentheses, p <= 0.05; read-out: Median effective dose (ED50) of antagonism to convulsions caused by 3-mercaptopropionic acid
# Experimental: (§1) The anticonvulsant effect of the products in the mouse was evaluated on a model of convulsions caused by electric shock, and on 2 models of convulsions induced by chemical agents: bicuculline and 3-mercaptopropionic acid.
# (§2) The batches were constituted by 10 CD Charles Rivers mice of weights comprised between 20 and 22 g. The products were administered orally 60 minutes before the 3-mercaptopropionic acid (60 mg/kg s.c.).
# [2] = Acute toxicity, determination of the lethal dose in the mouse; conditions: in vivo, po, read-out: Percent toxicity (animals which die in 72 hours)
# Experimental: The toxicity of the products according to the invention was studied: the products were administered orally, to batches of 5 CD Charles Rivers female mice, of weights comprised between 20 and 24 g. The toxicity was noted during the 72 hours which followed the administration of the products.
# The results expressed as a percentage of animals which die in the 72 hours following the oral administration of the products, are noted in the preceding table.
# [3] = Effect on spontaneous motility (Boissier and Simon activity test, actimetric cages); assay type: in vivo, mouse (CD1 Charles Rivers female mice); conditions: mouse; for Locomotor activity, score percent/controls: 100 mg/kg p.os., 45 min after administration, 10 min recording, * P <= 0.05, ** P <= 0.01; for Effect on spontaneous motility (in words): oral dose of 100 mg/kg
# Experimental: The spontaneous motility of the animals was measured by means of the activity test developed by Boissier and Simon, Arch. Int. Pharmacocyn., 1965, 158, 212-221. The equipment is composed of actimetric cages, type Apelab (26×21.5×10 cm), traversed by two light rays which fall on a photoelectric cell. The batches were constituted by CD1 Charles Rivers female mice, of weight comprised between 20 and 24 g. The animals were placed individually in cages 45 minutes after oral administration of the products at the dose of 100 mg/kg. Each traversal by a light beam was counted by an individual counter. The scores corresponding to the movements of the animals were recorded for 10 minutes, and compared with the scores taken on batches of control animals, treated only with the vehicle (5% gum arabic).
# [4] = Potentiation of narcosis with pentobarbital (loss of righting reflex); assay type: in vivo, mouse (CD1 Charles Rivers mice); conditions: mouse; for Potentiation of pentobarbital, percent of animals in narcosis: products at 100 mg/kg p.os.; for Potentiation of pentobarbital, percent of animals in narcosis / ED50: 60 min before pentobarbital 20 mg/kg i.p.; for ED50: po, p.os., probit method, confidence limits in parentheses, P <= 0.05
# Experimental: For the purpose of evaluating the hypnogenic power of the products, their capacity to potentiate the effects of a subnarcotic dose of pentabarbital in the mouse was studied. The batches were constituted by 10 CD1 Charles Rivers mice, of weight comprised between 20 and 24 g.
# The pentobarbital (20 mg/kg, i.p.) was administered 60 minutes after administration of the products. The drowsiness criterion taken was the loss of the righting reflex.
# [5] = Antagonism of the convulsions induced by electric shock; assay type: in vivo, mouse (CD1 Charles Rivers mice); conditions: mouse; for ED50: oral, 60 min before electroshock, probit method, confidence limits in parentheses, p <= 0.05, read-out: Median effective dose (ED50) of electric shock antagonism
# Experimental: as §1
# (§3) The test was slightly modified from that of Swinyard et al., J. Pharm. Exp. Ther., 1952, 106, 319-330 and Asami et al. Arzneim. Forsch., 1974, 24 (1), 1563-1568. The equipment was composed of a Racia shock generator provided with two occular electrodes delivering a current of 60 volts for 0.3 seconds. The batches were constituted by 10 CD1 Charles Rivers mice of weight comprised between 20 and 24 g. The products were administered orally, 60 minutes before the electroshock.
# [6] = Antagonism of convulsions and of mortality caused by bicucullin; assay type: in vivo, mouse (CD Charles Rivers mice)
# Experimental: as §1
# (§4) The batches were constituted by 10 CD Charles Rivers mice of weights comprised between 20 and 22 g. The products were administered orally, 60 minutes before the bicucullin (0.8 mg/kg, i.v.).
# [7] = Evaluation of the anticonvulsant activity (electric shock, bicucullin and 3-mercaptopropionic acid taken together); assay type: in vivo; conditions: mouse, oral
# Experimental: as §1, §3, §4, §2
# [8] = Mus musculus, po, read-out: Median effective dose (ED50) of the antagonism to the effects of bicucullin: Mortality
# [9] = mouse, oral, 60 min before bicucullin 0.8 mg/kg i.v., probit method, confidence limits in parentheses, p < 0.05, read-out: Median effective dose (ED50) of the antagonism to the effects of bicucullin: Tonic convulsions
compound,measurement,setting,value
CC1CC(Cc2ccc(Cl)cc2Cl)NC1=O (stereo not drawn) [SR 41676],ED50,[1],23 mg/kg
same,mortality at 72 h,[2]; 250 mg/kg p.os.,0%
same,mortality at 72 h,[2]; 500 mg/kg p.os.,0%
same,mortality at 72 h,[2]; 1000 mg/kg p.os.,0%
same,"Locomotor activity, score percent/controls",[3],-34%
same,Effect on spontaneous motility (in words),[3],sedative activity characterized by a considerable reduction in the motility
same,"Potentiation of pentobarbital, percent of animals in narcosis",[4],100%
same,ED50,[4],48 mg/kg
CC1(C)CC(Cc2ccc(Cl)cc2)NC1=O (stereo not drawn) [SR 41873],ED50,[1],48 mg/kg
same,ED50,[5],62 mg/kg
same,mortality at 72 h,[2]; 250 mg/kg p.os.,0%
same,mortality at 72 h,[2]; 500 mg/kg p.os.,0%
same,ED50,[6]; [8],85 mg/kg
same,ED50,[6]; [9],112 mg/kg
same,"Potentiation of pentobarbital, percent of animals in narcosis",[4],10%
CC1CC(Cc2ccccc2Cl)NC1=O (stereo not drawn) [SR 41678],ED50,[1],53 mg/kg
same,ED50,[5],44 mg/kg
same,mortality at 72 h,[2]; 250 mg/kg p.os.,0%
same,mortality at 72 h,[2]; 500 mg/kg p.os.,0%
same,mortality at 72 h,[2]; 1000 mg/kg p.os.,60%
same,ED50,[6]; [9],76 mg/kg
same,"Locomotor activity, score percent/controls",[3],+45%
same,Effect on spontaneous motility (in words),[3],stimulating effects of the motor activity
same,"Potentiation of pentobarbital, percent of animals in narcosis",[4],30%
"CC1(C)CC(Cc2ccc(F)cc2)NC1=O (stereo not drawn) [SR 41293, 3,3-dimethyl-5-[(4-fluoro-phenyl)-methyl]2-pyrrolidinone]",ED50,[1],20 mg/kg
same,ED50,[5],99 mg/kg
same,mortality at 72 h,[2]; 250 mg/kg p.os.,0%
same,mortality at 72 h,[2]; 500 mg/kg p.os.,0%
same,mortality at 72 h,[2]; 1000 mg/kg p.os.,80%
same,ED50,[6]; [8],41 mg/kg
same,ED50,[6]; [9],90 mg/kg
same,"Potentiation of pentobarbital, percent of animals in narcosis",[4],80%
same,ED50,[4],56 mg/kg
CC1CC(Cc2ccccc2F)NC1=O (stereo not drawn) [SR 41881],ED50,[1],46 mg/kg
same,ED50,[5],92 mg/kg
same,mortality at 72 h,[2]; 250 mg/kg p.os.,0%
same,mortality at 72 h,[2]; 500 mg/kg p.os.,0%
same,mortality at 72 h,[2]; 1000 mg/kg p.os.,100%
same,"Locomotor activity, score percent/controls",[3],+41%
same,Effect on spontaneous motility (in words),[3],stimulating effects of the motor activity
same,"Potentiation of pentobarbital, percent of animals in narcosis",[4],30%
"O=C1CCC(Cc2ccccc2)N1 (stereo not drawn) [Compound A, 5-phenylmethyl 2-pyrrolidinone, reference compound]",ED50,[1],> 100 mg/kg
same,Inhibition of electric shock convulsions,[5]; at 200 mg/kg p.os.,40%
same,mortality at 72 h,[2]; 250 mg/kg p.os.,0%
same,mortality at 72 h,[2]; 500 mg/kg p.os.,0%
same,mortality at 72 h,[2]; 1000 mg/kg p.os.,60%
same,Antagonism to bicucullin mortality,"[6]; mouse, at 200 (mg/kg p.o.)",30%
same,Median effective dose (ED50) of the antagonism to the effects of bicucullin: Tonic convulsions,"[6]; mouse, oral, 60 min before bicucullin 0.8 mg/kg i.v., probit method, confidence limits in parentheses, p < 0.05",inactive at 200
same,"Locomotor activity, score percent/controls",[3],+1.2%
same,Effect on spontaneous motility (in words),[3],does not act on the spontaneous motility
same,Hypnogenic effect / potentiation of narcosis with pentobarbital (in words),[4]; oral,devoid of hyponogenic effect
same,"Potentiation of pentobarbital, percent of animals in narcosis",[4],0%
same,Anticonvulsant properties (in words),[7],does not show anticonvulsant properties
CCC1(C)CC(Cc2ccc(F)cc2)NC1=O (stereo not drawn) [SR 42002],ED50,[1],49 mg/kg
same,ED50,[5],49 mg/kg
same,mortality at 72 h,[2]; 250 mg/kg p.os.,0%
same,mortality at 72 h,[2]; 500 mg/kg p.os.,0%
same,mortality at 72 h,[2]; 1000 mg/kg p.os.,100%
same,ED50,[6]; [9],~100 mg/kg
same,"Potentiation of pentobarbital, percent of animals in narcosis",[4],50%
CC1(C)CC(Cc2ccccc2F)NC1=O (stereo not drawn) [SR 41680],ED50,[1],54 mg/kg
same,ED50,[5],51 mg/kg
same,mortality at 72 h,[2]; 250 mg/kg p.os.,0%
same,mortality at 72 h,[2]; 500 mg/kg p.os.,0%
same,"Locomotor activity, score percent/controls",[3],+99%
same,Effect on spontaneous motility (in words),[3],stimulating effects of the motor activity
